The results in this text go back to paper PMC5563452 (Nature chemical biology, 2017).

For experiment [1], the target named is T1, TRPM2 (Homo sapiens, UniProt O94759). Put plainly: whole-cell patch clamp, HEK293 expressing hTRPM2. The experiment is classed as cell-based.
Experiment [2] concerns the target T1, TRPM2. In words: whole-cell patch clamp. The experiment is classed as cell-based.

T1 sequence (O94759 whole entry): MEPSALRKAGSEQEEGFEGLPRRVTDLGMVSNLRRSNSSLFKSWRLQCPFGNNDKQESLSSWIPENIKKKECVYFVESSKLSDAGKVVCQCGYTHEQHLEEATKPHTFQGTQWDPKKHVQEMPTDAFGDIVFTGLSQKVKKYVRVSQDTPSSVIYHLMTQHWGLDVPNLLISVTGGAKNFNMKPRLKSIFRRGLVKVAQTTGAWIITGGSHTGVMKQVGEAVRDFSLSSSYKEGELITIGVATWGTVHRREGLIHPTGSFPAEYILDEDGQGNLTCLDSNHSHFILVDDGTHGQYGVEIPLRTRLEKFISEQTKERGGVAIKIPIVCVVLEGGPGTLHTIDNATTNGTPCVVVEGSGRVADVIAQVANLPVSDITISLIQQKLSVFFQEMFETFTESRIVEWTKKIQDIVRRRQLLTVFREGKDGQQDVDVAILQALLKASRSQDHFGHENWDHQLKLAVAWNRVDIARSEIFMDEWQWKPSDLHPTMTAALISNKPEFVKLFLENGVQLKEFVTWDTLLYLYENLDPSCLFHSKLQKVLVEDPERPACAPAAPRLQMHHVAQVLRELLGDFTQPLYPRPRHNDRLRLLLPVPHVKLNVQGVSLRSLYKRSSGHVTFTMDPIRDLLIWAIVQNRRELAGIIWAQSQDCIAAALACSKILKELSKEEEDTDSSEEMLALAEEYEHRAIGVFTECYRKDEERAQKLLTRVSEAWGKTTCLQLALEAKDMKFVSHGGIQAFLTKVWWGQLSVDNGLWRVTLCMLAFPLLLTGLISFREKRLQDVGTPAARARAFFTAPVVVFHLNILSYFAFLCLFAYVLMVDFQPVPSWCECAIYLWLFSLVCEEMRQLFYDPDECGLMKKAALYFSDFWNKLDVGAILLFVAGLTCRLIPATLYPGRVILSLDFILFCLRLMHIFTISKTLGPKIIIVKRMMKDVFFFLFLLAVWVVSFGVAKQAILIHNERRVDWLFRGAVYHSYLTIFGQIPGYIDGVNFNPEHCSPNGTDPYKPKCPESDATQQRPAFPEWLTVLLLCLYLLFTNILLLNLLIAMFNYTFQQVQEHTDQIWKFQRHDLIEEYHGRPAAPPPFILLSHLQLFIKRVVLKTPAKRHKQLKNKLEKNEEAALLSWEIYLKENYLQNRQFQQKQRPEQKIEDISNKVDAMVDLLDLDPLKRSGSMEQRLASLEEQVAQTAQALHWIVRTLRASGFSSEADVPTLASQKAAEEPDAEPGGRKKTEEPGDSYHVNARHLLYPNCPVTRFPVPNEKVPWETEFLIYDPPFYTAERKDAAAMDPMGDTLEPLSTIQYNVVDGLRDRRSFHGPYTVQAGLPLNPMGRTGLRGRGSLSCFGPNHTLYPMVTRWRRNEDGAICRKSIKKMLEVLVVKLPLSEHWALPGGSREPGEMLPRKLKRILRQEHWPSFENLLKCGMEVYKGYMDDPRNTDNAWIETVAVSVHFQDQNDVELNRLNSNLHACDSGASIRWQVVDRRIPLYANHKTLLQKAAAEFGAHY

One may read the EC50 as the concentration at which the effect is half-maximal. The compound `Nc1ncnc2c1ncn2[C@@H]1O[C@H](COP(=O)(O)OP(=O)(O)OC[C@H]2OC(O)[C@H](O)[C@@H]2O)[C@@H](O)[C@H]1OP(=O)(O)O` (stereo partly drawn) [compound 15, 2′-phospho-ADPR] registered an EC50 in experiment [1] of 110 µM.
Take `Nc1ncnc2c1ncn2[C@@H]1O[C@H](COP(=O)(O)OP(=O)(O)OC[C@H]2OC(O)[C@H](O)[C@@H]2O)[C@@H](O)[C@H]1O` (stereo partly drawn) [compound 1, ADPR]: the EC50 in experiment [2] stood at 28 µM.
In experiment [1], `Nc1ncnc2c1ncn2[C@@H]1O[C@H](COP(=O)(O)OP(=O)(O)OC[C@H]2OC(O)[C@H](O)[C@@H]2O)C[C@H]1O` (stereo partly drawn) [compound 17, 3′-deoxy-ADPR] came in with an EC50 of 46 µM.
